Experimental data published in US6800770B2, “Anti-spasticity of an eicosanoid analog” (Virginia Commonwealth University, priority 2002, dated 2004).

Key:
CB1 = molecular target: T1, CB1 (Rattus norvegicus, UniProt P20272); format: binding; conditions: displacement of [3H]CP55940, whole rat brain membranes; means ± S.D., n=3; read-out: CB1 affinity (Ki)
T1 construct: from whole rat brain membranes; from tissue; host or cells: whole rat brain membranes

human VR1 receptors = molecular target: T2, human VR1 receptors (Homo sapiens, UniProt Q8NER1); test: Enhancement of [Ca2+] via HEK-hVR1 cells; format: cell-based
T2 construct: expressed in transfected cells; host or cells: HEK-hVR1 cells
Description: J. Pharm. Exp. Ther. 300: 984.

[1] = test system: spasticity in Biozzi ABH mice; conditions: 0.05 mg/kg i.v.; baseline vs 30 min after treatment
Description: This was assessed to detect limb stiffness by analysis using a strain gauge (Baker et al 2000). The analogue signal from the strain gauge was amplified and digitally converted using an ComputerBoards Inc PCM-DAS16S/12 card (Amplicon, Brighton, UK). This was captured using Dacquire V10 software (D.Buckwell, Institute of Neurology, UK) and analyzed using Spike 2 software (Cambridge Electronics Design, UK). The hindlimbs were fully extended twice then moved to full flexion against the strain gauge. The mean of 4-8 individual readings per limb was taken for each time point. Results are expressed as means of forces of resistance to flexion (in Newtons) and SEM per group.
Statistical analysis was performed using Sigmastat 2.0 (Jandel/SPSS, USA) using one-way repeated measures analysis of variance (ANOVA) incorporating a pair-wise Student-Newman-Keuls (SNK) test. […] N=13 limbs analyzed from 8 spastic animals.
Arvanil treatment was carried out with and without pretreatment of the animals with SR141617A, SR144528 (known to inhibit CB1 and CB2 receptor function, respectively) and capsazepine, a known antagonist of the vanilloid recpetor (VR-1).

T2 sequence (Q8NER1 whole entry): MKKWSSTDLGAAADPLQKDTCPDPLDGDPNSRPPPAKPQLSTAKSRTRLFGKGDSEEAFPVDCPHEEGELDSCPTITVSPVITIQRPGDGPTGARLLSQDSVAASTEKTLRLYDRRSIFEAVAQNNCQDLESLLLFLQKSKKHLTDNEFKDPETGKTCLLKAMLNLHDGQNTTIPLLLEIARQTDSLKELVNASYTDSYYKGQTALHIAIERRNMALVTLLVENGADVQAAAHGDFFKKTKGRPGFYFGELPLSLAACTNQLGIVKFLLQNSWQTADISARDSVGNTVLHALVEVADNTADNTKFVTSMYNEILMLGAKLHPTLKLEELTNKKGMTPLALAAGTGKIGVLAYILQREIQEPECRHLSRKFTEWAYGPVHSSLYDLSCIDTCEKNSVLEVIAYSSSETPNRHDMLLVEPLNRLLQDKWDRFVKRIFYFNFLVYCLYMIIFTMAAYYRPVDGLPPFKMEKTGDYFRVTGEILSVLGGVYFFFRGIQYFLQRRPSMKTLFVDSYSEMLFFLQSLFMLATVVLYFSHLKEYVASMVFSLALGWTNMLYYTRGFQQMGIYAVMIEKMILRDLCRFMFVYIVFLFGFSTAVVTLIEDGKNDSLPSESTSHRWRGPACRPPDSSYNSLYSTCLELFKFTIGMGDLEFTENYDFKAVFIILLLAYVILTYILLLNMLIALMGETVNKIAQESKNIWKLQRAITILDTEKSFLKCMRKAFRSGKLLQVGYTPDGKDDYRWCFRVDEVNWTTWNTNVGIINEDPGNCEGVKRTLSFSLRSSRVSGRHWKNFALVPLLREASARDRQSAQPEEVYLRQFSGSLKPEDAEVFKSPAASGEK
T1 sequence (P20272 whole entry): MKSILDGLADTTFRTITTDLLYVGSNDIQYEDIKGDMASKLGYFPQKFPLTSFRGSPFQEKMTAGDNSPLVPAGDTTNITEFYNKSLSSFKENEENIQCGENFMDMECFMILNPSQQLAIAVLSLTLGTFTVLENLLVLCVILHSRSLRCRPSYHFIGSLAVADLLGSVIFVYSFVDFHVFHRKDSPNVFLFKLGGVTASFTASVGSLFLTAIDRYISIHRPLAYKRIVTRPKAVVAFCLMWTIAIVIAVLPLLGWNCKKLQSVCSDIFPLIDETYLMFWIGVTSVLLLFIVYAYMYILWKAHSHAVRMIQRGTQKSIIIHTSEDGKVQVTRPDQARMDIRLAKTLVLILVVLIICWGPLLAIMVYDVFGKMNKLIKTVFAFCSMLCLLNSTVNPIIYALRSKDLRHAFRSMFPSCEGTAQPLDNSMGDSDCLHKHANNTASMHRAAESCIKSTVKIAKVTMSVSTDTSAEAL

CCCCC/C=C\C/C=C\C/C=C\C/C=C\CCCC(=O)N(Cc1ccc(O)c(Cl)c1)Cc1ccc(O)c(Cl)c1 [O-2093, N,N-Di-3-chloro-4-hydroxybenzylarachadonamide]
Ki (CB1): 1290 ± 140 nM
Emax (human VR1 receptors; in parentheses in the hVR1 potency column, read-out: hVR1 efficacy (maximal effect as percentage of the effect of 4 μM capsaicin)): 26.9%
EC50 (human VR1 receptors; read-out: hVR1 potency (EC50), means ± S.D., n=3): > 50000 nM
decrease in resistance to flexion [1]: ~35%
